Among the data in BindingDB's records for doi:10.1016/j.bmcl.2019.02.028 (Indiana University School of Medicine, 2019) are Kd values, retold here.

The target in the assay is Chaperonin GroEL (Escherichia coli (strain K12), UniProt P0A6F5). Nature of the assay: Binding affinity to Escherichia coli GroEL expressed in Escherichia coliDH5alpha by ITC assay. A general note: In ITC the heat of successive injections is recorded.
Chaperonin GroEL, sequence (P0A6F5 2-548 limits assumed): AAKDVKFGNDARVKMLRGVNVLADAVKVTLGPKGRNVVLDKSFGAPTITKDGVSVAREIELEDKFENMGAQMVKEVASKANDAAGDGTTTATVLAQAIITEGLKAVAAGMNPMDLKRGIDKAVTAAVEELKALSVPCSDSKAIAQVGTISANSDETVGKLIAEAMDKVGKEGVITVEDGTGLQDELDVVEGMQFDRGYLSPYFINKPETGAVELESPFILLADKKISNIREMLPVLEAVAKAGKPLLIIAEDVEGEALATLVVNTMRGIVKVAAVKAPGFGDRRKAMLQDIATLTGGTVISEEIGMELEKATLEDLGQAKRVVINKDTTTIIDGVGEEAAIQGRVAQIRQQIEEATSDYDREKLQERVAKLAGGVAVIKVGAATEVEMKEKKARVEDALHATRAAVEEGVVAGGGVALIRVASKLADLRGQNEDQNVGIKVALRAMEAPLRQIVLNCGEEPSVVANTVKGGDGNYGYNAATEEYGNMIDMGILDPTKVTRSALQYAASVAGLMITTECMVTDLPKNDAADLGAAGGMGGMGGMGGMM

For orientation: Kd means the constant that tells how readily two partners part at equilibrium. Low readings indicate tighter binding, high ones weaker binding. `CC1=CCC(C(=O)/N=C2\CC=C(S(=O)(=O)O)c3cc(S(=O)(=O)O)cc(S(=O)(=O)O)c32)=C/C1=N/C(=O)C1=CC=C/C(=N\C(=O)/N=C2\C=CC=C(C(=O)/N=C3/CC(C(=O)/N=C4\CC=C(S(=O)(=O)O)c5cc(S(=O)(=O)O)cc(S(=O)(=O)O)c54)=CC=C3C)C2)C1` returned a Kd of 9.8 µM.
